According to patent US20030045582A1, “Method for treating hyperglycemia” (Alteon, Inc., priority 2000, published 2003):

Assays:
[1] = tested on: patients suffering from Type I diabetes with overt diabetic nephropathy; assay: Same clinical study: progression of diabetic retinopathy, three or more steps in ETDRS scale; type: in vivo, human
[2] = tested on: diabetic rats; settings: cited from earlier work
[3] = tested on: streptozotocin-diabetic rat; settings: streptozotocin-diabetic rat model; cited from earlier work
[4] = tested on: patients suffering from Type I diabetes with overt diabetic nephropathy; assay: Multicenter, randomized, double-blind, placebo-controlled study: time to doubling of baseline serum creatinine; type: in vivo, human
Protocol: (§1) Renal function was measured every three months using serum creatinine levels, and creatinine clearance rates. In addition, the glomerular filtration rate was measured at entry and every six months. Study participants were treated at one of two dosage levels, (150 mg and 300 mg B.I.D.).
Time to doubling of baseline serum creatinine was measured. Study participants were also treated with standard measures for blood pressure control, and diabetes management, including insulin treatment, diet, and exercise. Serum creatinine levels were made at baseline and randomization visits, at the end of weeks 1-6, the end of month 2, the end of month 3, and then every 3 months for the remainder of the study. “Baseline serum creatinine” was the mean of the levels at the baseline and randomization visits. If the level at any subsequent visit was at least two times the baseline, and was confirmed by a second measurement, the patient was considered to have experienced a doubling of baseline serum creatinine. Serum creatinine levels were determined by a clinical laboratory (SciCor Inc., 8211 SciCor Drive, Indianapolis, Ind. 46214-2985).

[5] = tested on: kidney; settings: in vivo; cited from earlier work
[6] = tested on: patients suffering from Type I diabetes with overt diabetic nephropathy; assay: Same clinical study: 24 hour urinary protein excretion; type: in vivo, human
Protocol: as §1
(FIG. 1). The reduction was generally first observed at the first post-randomization evaluation (at three months) and increased in magnitude over the duration of the study. […] (FIG. 2).

[7] = tested on: red blood cell (RBC) deformability; settings: in vivo; cited from earlier work

In the case of `N=C(N)NN` [Pimagedine, aminoguanidine], the “% of patients with a ≧ 3 step progression in ETDRS score” value (from here on “% of patients”) ([1]; Combined) is reported as “(10%)”, the “Logistic regression model odds ratio, ≧ 3 step retinopathy progression” value (“Logistic regression model odds ratio” below) ([1]; Combined versus placebo) is reported as 0.53 and the “% of patients” value ([1]; High Dose) is reported as “(8%)”. For the same compound, the “Logistic regression model odds ratio” value ([1]; High Dose versus placebo) was 0.68, the “% of patients” value ([1]; Low Dose) was “(11%)” and the “Logistic regression model odds ratio” value ([1]; Low Dose versus placebo) was 0.58. For the same compound, the “Incidence of progression of retinopathy from baseline to endpoint” value ([1]; progression of three or more steps in ETDRS scale) was “decreased”, the “Aortic wall protein cross-linking” value [2] was “diminishes” and the “Increased glomerular basement membrane thickness” value [3] was “prevented”. For the same compound, the “Patients with adjudicated doubling of serum creatinine (%)” value (“Patients with adjudicated doubling … (%)” below) ([4]; Baseline serum creatinine less than 1.5 mg/dL, Combined) was “(10%)”, the “Odds ratio, doubling of serum creatinine” value ([4]; Baseline serum creatinine less than 1.5 mg/dL, Combined versus placebo) was 0.59 and the “Patients with adjudicated doubling … (%)” value ([4]; Baseline serum creatinine less than 1.5 mg/dL, High Dose) was “(10%)”. For the same compound, the “Odds ratio, doubling of serum creatinine” value ([4]; Baseline serum creatinine less than 1.5 mg/dL, High Dose versus placebo) was 0.52, the “Patients with adjudicated doubling … (%)” value ([4]; Baseline serum creatinine less than 1.5 mg/dL, Low Dose) was “(11%)” and the “Odds ratio, doubling of serum creatinine” value ([4]; Baseline serum creatinine less than 1.5 mg/dL, Low Dose versus placebo) was 0.64. The “Patients with adjudicated doubling … (%)” value ([4]; Combined doses) was “(20%)”, the “Odds ratio, doubling of serum creatinine” value ([4]; Combined versus placebo) was 0.73 and the “Patients with adjudicated doubling … (%)” value ([4]; High Dose (300 mg B.I.D.), listed as pimagendine) was 20%. For the same compound, the “Odds ratio, doubling of serum creatinine” value ([4]; High Dose versus placebo) was 0.73, the “Patients with adjudicated doubling … (%)” value ([4]; Low Dose (150 mg B.I.D.)) was “(20%)” and the “Patients with adjudicated doubling … (%)” value ([4]; Low Dose (150 mg B.I.D.), listed as pimagendine) was 20%. For the same compound, the “Odds ratio, doubling of serum creatinine” value ([4]; Low Dose versus placebo) was 0.72, the “Reduction in the risk of doubling serum creatinine” value ([4]; all patients, versus placebo) was 29% and the “Patients with adjudicated doubling … (%)” value ([4]; high dose (300 mg B.I.D.)) was “(20%)”. For the same compound, the “Reduction of the risk of doubling serum creatinine” value ([4]; patients with a baseline serum creatinine of less than 1.5 mg/dL) was 63%, the “Immunoglobulin trapping in the kidney” value [5] was “reduction” and the “24 hour urinary protein excretion” value ([6]; high dose (300 mg B.I.D.)) was “statistically significant reductions”. The “24 hour urinary protein excretion” value ([6]; low dose (150 mg B.I.D.)) was “statistically significant reductions”, the Effect on proteinuria ([6]; patients with a baseline serum creatinine of less than 1.5 mg/dL compared with whole population) was “greater effect” and the “Diabetes-induced changes in the deformability of red blood cells” value [7] was “prevent”.
